Experimental data taken from ChEMBL document CHEMBL1138401, “Novel nucleotide triphosphates as potent P2Y2 agonists with enhanced stability over UTP” (Bioorg Med Chem Lett, 2007).

How the values were obtained:
P2Y purinoceptor 2 = P2Y purinoceptor 2 (Homo sapiens, UniProt P41231); assay: Agonist activity at human P2Y2 receptor expressed in human 1321N1 by FLIPR assay; assay type: functional
[1] = Metabolic stability in human bronchial epithelial cells after 180 mins; assay type: ADME, cell-based, Epithelial cell; details: read-out: Stability
[2] = Metabolic stability in human bronchial epithelial cells after 120 mins; assay type: ADME, cell-based, Epithelial cell; details: read-out: Stability
P2Y purinoceptor 1 = P2Y purinoceptor 1 (Homo sapiens, UniProt P47900); assay: Agonist activity at human cloned P2Y1 receptor expressed in human 1321N1 by FLIPR assay; assay type: functional
P2Y purinoceptor 4 = P2Y purinoceptor 4 (Homo sapiens, UniProt P51582); assay: Agonist activity at human cloned P2Y4 receptor expressed in human 1321N1 by FLIPR assay; assay type: functional
[3] = Agonist activity at human cloned P2Y6 receptor expressed in human 1321N1 by FLIPR assay; assay type: functional

Sequence of P2Y purinoceptor 1 (P47900 whole entry): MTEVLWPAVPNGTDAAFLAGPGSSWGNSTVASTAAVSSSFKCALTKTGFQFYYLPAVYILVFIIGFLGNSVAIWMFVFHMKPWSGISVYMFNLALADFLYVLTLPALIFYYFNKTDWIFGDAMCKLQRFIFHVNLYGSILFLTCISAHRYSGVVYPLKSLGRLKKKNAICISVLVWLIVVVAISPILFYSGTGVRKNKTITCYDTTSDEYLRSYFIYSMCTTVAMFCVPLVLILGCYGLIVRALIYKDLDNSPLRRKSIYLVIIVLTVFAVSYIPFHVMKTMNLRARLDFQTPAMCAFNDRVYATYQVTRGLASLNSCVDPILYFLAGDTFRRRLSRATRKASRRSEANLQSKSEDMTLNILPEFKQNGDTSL
Sequence of P2Y purinoceptor 4 (P51582 whole entry): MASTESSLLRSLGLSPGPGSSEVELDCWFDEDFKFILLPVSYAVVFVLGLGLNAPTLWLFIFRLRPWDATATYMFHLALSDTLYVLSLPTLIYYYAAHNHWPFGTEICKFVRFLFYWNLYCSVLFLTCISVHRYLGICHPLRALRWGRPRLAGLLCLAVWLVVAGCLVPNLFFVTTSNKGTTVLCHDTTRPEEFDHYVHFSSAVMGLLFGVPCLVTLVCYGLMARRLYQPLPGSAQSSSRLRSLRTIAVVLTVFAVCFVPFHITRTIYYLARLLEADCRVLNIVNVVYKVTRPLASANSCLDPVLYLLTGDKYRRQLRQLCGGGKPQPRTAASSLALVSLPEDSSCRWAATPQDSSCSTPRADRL
Sequence of P2Y purinoceptor 2 (P41231 whole entry): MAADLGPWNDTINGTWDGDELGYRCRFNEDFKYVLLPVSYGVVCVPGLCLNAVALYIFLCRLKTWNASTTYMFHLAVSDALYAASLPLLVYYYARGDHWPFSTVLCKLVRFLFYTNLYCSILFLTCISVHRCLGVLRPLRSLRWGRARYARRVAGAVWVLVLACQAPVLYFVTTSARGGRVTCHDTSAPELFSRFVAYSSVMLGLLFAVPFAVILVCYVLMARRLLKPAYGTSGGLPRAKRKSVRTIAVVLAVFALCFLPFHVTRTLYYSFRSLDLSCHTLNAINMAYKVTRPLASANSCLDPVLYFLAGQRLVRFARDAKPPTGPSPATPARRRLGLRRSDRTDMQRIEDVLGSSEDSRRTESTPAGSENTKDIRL

EC50 (P2Y purinoceptor 2)	remaining at 3 h [1]	remaining at 2 h [2]	EC50 (P2Y purinoceptor 1)	EC50 (P2Y purinoceptor 4)	EC50 [3]	SMILES
42 nM	–	–	–	–	–	COc1ccc2nc([C@@H]3O[C@H](COP(=O)(O)OP(=O)(O)OP(=O)(O)O)[C@@H](O)[C@H]3O)sc2c1
700 nM	–	–	–	–	–	COc1cccc2sc([C@@H]3O[C@H](COP(=O)(O)OP(=O)(O)OP(=O)(O)O)[C@@H](O)[C@H]3O)nc12
390 nM	–	–	–	–	–	Cc1ccc2oc([C@@H]3O[C@H](COP(=O)(O)OP(=O)(O)OP(=O)(O)O)[C@@H](O)[C@H]3O)nc2c1
22 nM	20%	50%	> 20000 nM	4120 nM	> 20000 nM	O=P(O)(O)OP(=O)(O)OP(=O)(O)OC[C@H]1O[C@@H](c2nc3ccccc3s2)[C@H](O)[C@@H]1O
8 nM	–	–	–	–	–	O=P(O)(O)OP(=O)(O)OP(=O)(O)OC[C@H]1O[C@@H](c2nc3ccc(Cl)cc3s2)[C@H](O)[C@@H]1O
3 nM	–	–	–	–	–	O=P(O)(O)OP(=O)(O)OP(=O)(O)OC[C@H]1O[C@@H](c2nc3cc(F)ccc3s2)[C@H](O)[C@@H]1O
10 nM	–	–	> 20000 nM	> 20000 nM	> 20000 nM	O=P(O)(O)OP(=O)(O)OP(=O)(O)OC[C@H]1O[C@@H](c2nc3cc(C(F)(F)F)ccc3s2)[C@H](O)[C@@H]1O
200 nM	–	–	–	–	–	Cn1c([C@@H]2O[C@H](COP(=O)(O)OP(=O)(O)OP(=O)(O)O)[C@@H](O)[C@H]2O)nc2ccccc21
7 nM	–	–	> 20000 nM	4230 nM	> 20000 nM	O=P(O)(O)OP(=O)(O)OP(=O)(O)OC[C@H]1O[C@@H](c2nc3c(F)cc(Cl)cc3s2)[C@H](O)[C@@H]1O
–	50%	70%	–	–	–	O=c1c2cc(F)ccc2ccn1[C@@H]1O[C@H](COP(=O)(O)OP(=O)(O)OP(=O)(O)O)[C@@H](O)[C@H]1O
–	–	–	> 2000 nM	–	424 nM	O=c1ccn([C@@H]2O[C@H](COP(=O)(O)OP(=O)(O)OP(=O)(O)O)[C@@H](O)[C@H]2O)c(=O)[nH]1 [URIDINE TRIPHOSPHATE]
